Assays:
Primary hVSMCs = experiment: hVSMC migration, silicon culture inserts with cell free gap; type: cell-based, human
Method: (§1) To that end, experiments on the influence of the drug on migration and transmigration of the hVSMC and the expression of different mRNAs of proteins involved in the cellular invasivity were performed.

[1] = test system: human vascular smooth muscle cells (hVSMC); experiment: hVSMC viability, MTT test; type: cell-based
hVSMCs = experiment: mRNA levels in hVSMCs (PAI-1, MMP2, Cx43, tPA, HMOX); type: cell-based, human; conditions: ATV directly added in the medium, 24 hours incubation
Method: FIG. 6: Analysis of transcripts and proteins of hVSMC. Measurements of various mRNAs levels in hVSMCs in presence of ATV directly added in the medium were performed. PAI-1 and MMP2 and Cx43 mRNA levels were decreased whereas tPA and HMOX transcripts were increased after 24 hours incubation.
as §1

## CC(C)c1c(C(=O)Nc2ccccc2)c(-c2ccccc2)c(-c2ccc(F)cc2)n1CC[C@@H](O)C[C@@H](O)CC(=O)O [ATV, Atorvastatin]
Primary hVSMCs; 5 μM ATV directly added to the culture medium
  time at which inhibition of cell migration was observed: 36 h
Primary hVSMCs; 10 μM ATV directly added to the culture medium
  time at which inhibition of cell migration was observed: 24 h
Primary hVSMCs; 5 and 10 μM ATV
  hVSMC migration into cell free gap: decreased
[1]; 5 μM ATV
  time of viability reduction: 72 h
[1]; 10 μM ATV
  time of viability reduction: 24 h
[1]; 5-10 μM ATV, P<0.05 versus cells without ATV
  viability of hVSMCs (MTT test): significantly reduced
[1]; primary culture at passage 2-5
  proliferation of human SMC: decreased
hVSMCs
  Cx43 mRNA level: decreased
  HMOX transcript level: increased
  MMP2 mRNA level: decreased
  PAI-1 mRNA level: decreased
  tPA transcript level: increased

— patent US10363227B2, “Pharmaceutical formulation for use in the treatment and/or prevention of restenosis” (Centre Hospitalier Universitaire Vaudois (C.H.U.V.), priority 2013, dated 2019)
